# Data from patent US20180148418A1, “AMIDO-SUBSTITUTED CYCLOHEXANE DERIVATIVES” (Bayer Pharma Aktiengesellschaft, priority 2015, published 2018).
# System: wildtype Wnt signaling cascade
# Assay: HEK293 TOP assay (Super TopFlash luciferase reporter, Wnt-3a stimulated)
# Assay type: cell-based
# Conditions: Homo sapiens, HEK293, 16 h, HEK293 TOP reporter cells, Wnt3a at EC50, 16 hours
# How it was run: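 Compound series (50 μM down to 15 nM, 3.16-fold) diluted from DMSO 50-fold into CAFTY buffer, pH 7.4, 2 mM Ca^2+, 0.01% BSA, applied to Wnt-3a-stimulated HEK293 TopFlash and FOP reporter lines in parallel. Cells seeded 10000/well 24 h before; luciferase signal measured.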
row,SMILES,IC50
1,"COCCNC(=O)c1nc[nH]c1C(=O)N[C@H]1CC[C@@]2(CCN(c3cc(F)c(F)cc3Cl)C2=O)CC1 [Example 202, N^5-[(trans)-2-(2-chloro-4,5-difluorophenyl)-1-oxo-2-azaspiro[4.5]dec-8-yl]-N^4-(2-methoxyethyl)-1H-imidazole-4,5-dicarboxamide]",0.55 nM
2,"CC(C)NC(=O)c1nc[nH]c1C(=O)N[C@H]1CC[C@@]2(CCN(c3cccc(Cl)c3)C2=O)CC1 [Example 278, N^5-[(trans)-2-(3-chlorophenyl)-1-oxo-2-azaspiro[4.5]dec-8-yl]-N^4-(propan-2-yl)-1H-imidazole-4,5-dicarboxamide]",90 nM
3,"O=C(N[C@H]1CC[C@@]2(CCN(c3ccccc3Cl)C2=O)CC1)c1cnc2cccnn12 [Example 271, N-[(trans)-2-(2-chlorophenyl)-1-oxo-2-azaspiro[4.5]dec-8-yl]imidazo[1,2-b]pyridazine-3-carboxamide]",3.6 nM
4,"CNC(=O)c1nc[nH]c1C(=O)N[C@H]1CC[C@@]2(CCN(c3cc(F)c(F)cc3Cl)C2=O)CC1 [Example 196, N^5-[(trans)-2-(2-chloro-4,5-difluorophenyl)-1-oxo-2-azaspiro[4.5]dec-8-yl]-N^4-methyl-1H-imidazole-4,5-dicarboxamide]",0.74 nM
5,"CCNC(=O)c1nc[nH]c1C(=O)N[C@H]1CC[C@@]2(CCN(c3cccc(Cl)c3)C2=O)CC1 [Example 277, N^5-[(trans)-2-(3-chlorophenyl)-1-oxo-2-azaspiro[4.5]dec-8-yl]-N^4-ethyl-1H-imidazole-4,5-dicarboxamide]",40 nM
6,"O=C(N[C@H]1CC[C@@]2(CCN(c3ccc(F)cc3Cl)C2=O)CC1)c1nc[nH]c1C(=O)NCC(F)(F)F [Example 195, N^4-[(trans)-2-(2-chloro-4-fluorophenyl)-1-oxo-2-azaspiro[4.5]dec-8-yl]-N^5-(2,2,2-trifluoroethyl)-1H-imidazole-4,5-dicarboxamide]",1.3 nM
7,"C[C@]1(C(=O)Nc2ccc(F)cc2Cl)CC[C@H](NC(=O)c2cnn3cccnc23)CC1 [Example 179, N-{trans-4-[(2-chloro-4-fluorophenyl)carbamoyl]-4-methylcyclohexyl}pyrazolo[1,5-a]pyrimidine-3-carboxamide]",410 nM
8,"CC(C)(C)OC(=O)N1CCN(c2ccn3ncc(C(=O)N[C@H]4CC[C@@]5(CCN(c6ccc(F)cc6Cl)C5=O)CC4)c3n2)CC1 [Example 225, tert-butyl 4-(3-{[(trans)-2-(2-chloro-4-fluorophenyl)-1-oxo-2-azaspiro[4.5]dec-8-yl]carbamoyl}pyrazolo[1,5-a]pyrimidin-5-yl)piperazine-1-carboxylate]",59 nM
9,"O=C(N[C@H]1CC[C@@]2(CCN(c3cccc(Cl)c3)C2=O)CC1)c1[nH]cnc1C(=O)N1CC(F)C1 [Example 280, N-[(trans)-2-(3-chlorophenyl)-1-oxo-2-azaspiro[4.5]dec-8-yl]-4-[(3-fluoroazetidin-1-yl)carbonyl]-1H-imidazole-5-carboxamide]",23 nM
10,"Cc1cc(N2CC[C@]3(CC[C@@H](NC(=O)c4cnc5cccnn45)CC3)C2=O)c(Cl)cc1F [Example 265, N-[(trans)-2-(2-chloro-4-fluoro-5-methylphenyl)-1-oxo-2-azaspiro[4.5]dec-8-yl]imidazo[1,2-b]pyridazine-3-carboxamide]",3.5 nM
11,"CNC(=O)c1nc[nH]c1C(=O)N[C@H]1CC[C@H](C(=O)N(C)c2ccc(F)cc2)CC1 [Example 172, N^5-{trans-4-[(4-fluorophenyl)(methyl)carbamoyl]cyclohexyl}-N^4-methyl-1H-imidazole-4,5-dicarboxamide]",410 nM
12,"O=C(N[C@H]1CC[C@@]2(CCN(c3cccc(Cl)c3)C2=O)CC1)c1cnn2cccnc12 [Example 268, N-[(trans)-2-(3-chlorophenyl)-1-oxo-2-azaspiro[4.5]dec-8-yl]pyrazolo[1,5-a]pyrimidine-3-carboxamide]",76 nM
13,"O=C(N[C@H]1CC[C@@]2(CCN(c3cc(F)c(F)cc3Cl)C2=O)CC1)c1[nH]cnc1C(=O)N1CC(F)C1 [Example 200, N-[(trans)-2-(2-chloro-4,5-difluorophenyl)-1-oxo-2-azaspiro[4.5]dec-8-yl]-4-[(3-fluoroazetidin-1-yl)carbonyl]-1H-imidazole-5-carboxamide]",0.17 nM
14,"O=C(N[C@H]1CC[C@@]2(CCN(c3ccc(F)cc3Cl)C2=O)CC1)c1[nH]cnc1C(=O)N1CCN(CC(F)(F)F)CC1 [Example 167, N-[(trans)-2-(2-chloro-4-fluorophenyl)-1-oxo-2-azaspiro[4.5]dec-8-yl]-4-{[4-(2,2,2-trifluoroethyl)piperazin-1-yl]carbonyl}-1H-imidazole-5-carboxamide]",130 nM
15,"O=C(NCCO)c1nc[nH]c1C(=O)N[C@H]1CC[C@H](C(=O)Nc2ccc(F)cc2Cl)CC1 [Example 18, N^5-{trans-4-[(2-chloro-4-fluorophenyl)carbamoyl]cyclohexyl}-N^4-(2-hydroxyethyl)-1H-imidazole-4,5-dicarboxamide]",150 nM
16,"CCNC(=O)c1nc[nH]c1C(=O)N[C@H]1CC[C@@]2(CCN(c3ccccc3Cl)C2=O)CC1 [Example 258, N^5-[(trans)-2-(2-chlorophenyl)-1-oxo-2-azaspiro[4.5]dec-8-yl]-N^4-ethyl-1H-imidazole-4,5-dicarboxamide]",2.3 nM
17,"CNC(=O)c1nc[nH]c1C(=O)N[C@H]1CC[C@@]2(CCN(c3cccc(Cl)c3)C2=O)CC1 [Example 276, N^5-[(trans)-2-(3-chlorophenyl)-1-oxo-2-azaspiro[4.5]dec-8-yl]-N^4-methyl-1H-imidazole-4,5-dicarboxamide]",27 nM
18,"O=C(NCC(F)(F)F)c1nc[nH]c1C(=O)N[C@H]1CC[C@H](C(=O)Nc2ccc(F)cc2Cl)CC1 [Example 21, N^5-{trans-4-[(2-chloro-4-fluorophenyl)carbamoyl]cyclohexyl}-N^4-(2,2,2-trifluoroethyl)-1H-imidazole-4,5-dicarboxamide]",79 nM
19,"COCCNC(=O)c1nc[nH]c1C(=O)N[C@H]1CC[C@@]2(CCN(c3cccc(Cl)c3)C2=O)CC1 [Example 282, N^5-[(trans)-2-(3-chlorophenyl)-1-oxo-2-azaspiro[4.5]dec-8-yl]-N^4-(2-methoxyethyl)-1H-imidazole-4,5-dicarboxamide]",41 nM
20,"CN1CC2(CCN(C(=O)c3nc[nH]c3C(=O)N[C@H]3CC[C@@]4(CCN(c5ccc(F)cc5Cl)C4=O)CC3)C2)C1 [Example 184, N-[(trans)-2-(2-chloro-4-fluorophenyl)-1-oxo-2-azaspiro[4.5]dec-8-yl]-4-[(2-methyl-2,6-diazaspiro[3.4]oct-6-yl)carbonyl]-1H-imidazole-5-carboxamide]",21 nM

# Other lines, results leading:
row,IC50,SMILES
1,5.5 nM,"CNc1ccn2ncc(C(=O)N[C@H]3CC[C@@]4(CCN(c5ccc(F)cc5Cl)C4=O)CC3)c2n1 [Example 215, N-[(trans)-2-(2-chloro-4-fluorophenyl)-1-oxo-2-azaspiro[4.5]dec-8-yl]-5-(methylamino)pyrazolo[1,5-a]pyrimidine-3-carboxamide]"
2,8.9 nM,"Cc1cc(C)n2ncc(C(=O)N[C@H]3CC[C@@]4(CCN(c5cccc(Cl)c5)C4=O)CC3)c2n1 [Example 270, N-[(trans)-2-(3-chlorophenyl)-1-oxo-2-azaspiro[4.5]dec-8-yl]-5,7-dimethylpyrazolo[1,5-a]pyrimidine-3-carboxamide]"
3,3.7 nM,"CN(C)c1ccn2ncc(C(=O)N[C@H]3CC[C@@]4(CCN(c5ccc(F)cc5Cl)C4=O)CC3)c2n1 [Example 217, N-[(trans)-2-(2-chloro-4-fluorophenyl)-1-oxo-2-azaspiro[4.5]dec-8-yl]-5-(dimethylamino)pyrazolo[1,5-a]pyrimidine-3-carboxamide]"
4,16 nM,"COc1ccn2ncc(C(=O)N[C@H]3CC[C@@]4(CCN(c5ccc(F)cc5Cl)C4=O)CC3)c2n1 [Example 218, N-[(trans)-2-(2-chloro-4-fluorophenyl)-1-oxo-2-azaspiro[4.5]dec-8-yl]-5-methoxypyrazolo[1,5-a]pyrimidine-3-carboxamide]"
5,6.6 nM,"Cc1cc(C)n2ncc(C(=O)N[C@H]3CC[C@@]4(CCN(c5cc(C)c(F)cc5Cl)C4=O)CC3)c2n1 [Example 266, N-[(trans)-2-(2-chloro-4-fluoro-5-methylphenyl)-1-oxo-2-azaspiro[4.5]dec-8-yl]-5,7-dimethylpyrazolo[1,5-a]pyrimidine-3-carboxamide]"
6,280 nM,"Cc1cnc2c(C(=O)N[C@H]3CC[C@@]4(CCN(c5ccc(F)cc5)C4=O)CC3)cnn2c1 [Example 210, N-[(trans)-2-(4-fluorophenyl)-1-oxo-2-azaspiro[4.5]dec-8-yl]-6-methylpyrazolo[1,5-a]pyrimidine-3-carboxamide]"
7,99 nM,"O=C(N[C@H]1CC[C@@]2(CCN(c3ccc(F)cc3)C2=O)CC1)c1cnn2cccnc12 [Example 209, N-[(trans)-2-(4-fluorophenyl)-1-oxo-2-azaspiro[4.5]dec-8-yl]pyrazolo[1,5-a]pyrimidine-3-carboxamide]"
8,660 nM,"Cc1cc(C)n2ncc(C(=O)N[C@H]3CC[C@]4(CCN(c5ccc(F)cc5)C4=O)CC3)c2n1 [Example 208, N-[(cis)-2-(4-fluorophenyl)-1-oxo-2-azaspiro[4.5]dec-8-yl]-5,7-dimethyl pyrazolo[1,5-a]pyrimidine-3-carboxamide]"
9,9 nM,"O=C(N[C@H]1CC[C@@]2(CCN(c3ccc(F)cc3Cl)C2=O)CC1)c1cnn2c(C(F)(F)F)ccnc12 [Example 233, N-[(trans)-2-(2-chloro-4-fluorophenyl)-1-oxo-2-azaspiro[4.5]dec-8-yl]-7-(trifluoromethyl)pyrazolo[1,5-a]pyrimidine-3-carboxamide]"
10,0.83 nM,"Cc1cc(C(F)F)n2ncc(C(=O)N[C@H]3CC[C@@]4(CCN(c5ccc(F)cc5Cl)C4=O)CC3)c2n1 [Example 224, N-[(trans)-2-(2-chloro-4-fluorophenyl)-1-oxo-2-azaspiro[4.5]dec-8-yl]-7-(difluoromethyl)-5-methylpyrazolo[1,5-a]pyrimidine-3-carboxamide]"
